Experimental data taken from patent US9781930B2, “3′-substituted-abscisic acid derivatives” (Valent BioSciences Corporation, priority 2014, dated 2017).

Experiments:
[1] = biological target: T1, (S)-ABA 8′-hydroxylase (Arabidopsis thaliana, UniProt Q9FH76); settings: according to Ueno, et al.; cited from earlier work
T1 sequence (Q9FH76 1-463): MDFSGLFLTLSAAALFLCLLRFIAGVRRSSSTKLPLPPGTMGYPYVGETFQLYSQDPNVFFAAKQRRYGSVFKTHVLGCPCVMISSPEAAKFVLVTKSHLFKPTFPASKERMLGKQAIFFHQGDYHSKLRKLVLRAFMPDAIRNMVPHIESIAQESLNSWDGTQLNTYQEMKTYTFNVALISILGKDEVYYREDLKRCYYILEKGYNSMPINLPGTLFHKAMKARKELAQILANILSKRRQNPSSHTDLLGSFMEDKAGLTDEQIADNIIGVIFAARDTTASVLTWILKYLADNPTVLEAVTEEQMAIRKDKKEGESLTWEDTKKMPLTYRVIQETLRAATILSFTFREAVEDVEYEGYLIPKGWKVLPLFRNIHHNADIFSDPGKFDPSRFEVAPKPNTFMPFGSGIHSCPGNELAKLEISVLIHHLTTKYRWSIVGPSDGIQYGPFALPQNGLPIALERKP

[2] = tested on: rice seedling; settings: according to Ueno, et al.; cited from earlier work
[3] = tested on: Arabidopsis thaliana seed; test: Seed germination assay for testing Examples 29-46; assay type: in vivo; design: key: + + + +: The other derivatives were scored by potency relative to S-ABA.; (S)-ABA potency = + + +.; + +: The other derivatives were scored by potency relative to S-ABA.; ++: The other derivatives were scored by potency relative to S-ABA.; +: The other derivatives were scored by potency relative to S-ABA.; −− = no effect; settings: 0.16-40 μM in 6-well plates, 4 days after vernalization, compared with (S)-ABA
Experimental: Seed Germination Assay for Testing Examples 29-46 To determine the germination inhibition potency of the (±)-ABA derivatives, germination assays were performed with the model plant Arabidopsis thaliana. Arabidopsis seed was sterilized by soaking in 70% ethanol solution for 5 minutes, followed by 5% sodium hypochlorite solution for 10 minutes. The seeds were then washed three times with sterile water. The test compounds were tested in germination assay at five concentrations (0.16, 0.64, 2.5, 10, and 40 μM) with (S)-ABA (0.16, 0.64 and 2.5 μM) as a control in 6-well plates. DMSO stock solutions of (S)-ABA and the derivatives at 1,000 fold of the test concentrations were prepared. The stock solutions (5 μL) of (S)-ABA and the derivatives were added to the wells in the assay plate with 0.8% agar solutions of ½ Murashige and Skoog media. Sixteen sterile seeds were placed on the solid agar medium at an appropriate spacing. The assay plates were sealed with surgical tape and wrapped in aluminum foil, and the seeds were vernalized at 4° C. for 2 days. The assay plates were incubated in a growth chamber at 22.5° C. under daily light cycles of 16 hours (30 μmol/m^2·sec) for 4 days after the vernalization. The germination inhibition potency of the derivatives was scored and compared with that of (S)-ABA. The results are summarized in Table 2 “Table 2: Arabidopsis seed germination inhibition activity of (±)-ABA derivatives.”

Row | SMILES | activity in (S)-ABA 8′-hydroxylase inhibition assay compared to (S)-ABA [1] | activity in rice seedling elongation assay compared to (S)-ABA [2] | Arabidopsis seed germination inhibition potency [3]
1 | CC1=C(C)C(O)(/C=C/C(C)=C\C(=O)O)C(C)(C)CC1=O (racemic) [(±)-3′-methyl-ABA] | lower activity than (S)-ABA | equal activity to (S)-ABA | 
2 | CCCCCCC1=C(C)C(O)(/C=C/C(C)=C\C(=O)O)C(C)(C)CC1=O (racemic) [Example 37, (2Z,4E)-5-(3-hexyl-1-hydroxy-2,6,6-trimethyl-4-oxocyclohex-2-en-1-yl)-3-methylpenta-2,4-dienoic acid] |  |  | −−
3 | CC1=C(C(C)(C)C)C(=O)CC(C)(C)C1(O)/C=C/C(C)=C\C(=O)O (racemic) [Example 35, (2Z,4E)-5-(3-(tert-butyl)-1-hydroxy-2,6,6-trimethyl-4-oxocyclohex-2-en-1-yl)-3-methylpenta-2,4-dienoic acid] |  |  | −−
4 | CC1=C(C2CCCC2)C(=O)CC(C)(C)C1(O)/C=C/C(C)=C\C(=O)O (racemic) [Example 42, (2Z,4E)-5-(3-cyclopentyl-1-hydroxy-2,6,6-trimethyl-4-oxocyclohex-2-en-1-yl)-3-methylpenta-2,4-dienoic acid] |  |  | −−
5 | CC1=C(C2(C)CC2)C(=O)CC(C)(C)C1(O)/C=C/C(C)=C\C(=O)O (racemic) [Example 36, (2Z,4E)-5-(1-hydroxy-2,6,6-trimethyl-3-(1-methylcyclopropyl)-4-oxocyclohex-2-en-1-yl)-3-methylpenta-2,4-dienoic acid] |  |  | −−
6 | CC1=C(c2ccccc2)C(=O)CC(C)(C)C1(O)/C=C/C(C)=C\C(=O)O (racemic) [Example 46, (2Z,4E)-5-(3-hydroxy-2,4,4-trimethyl-6-oxo-3,4,5,6-tetrahydro-[1,1′-biphenyl]-3-yl)-3-methylpenta-2,4-dienoic acid] |  |  | −−
7 | CC1=C(CC(C)C)C(=O)CC(C)(C)C1(O)/C=C/C(C)=C\C(=O)O (racemic) [Example 34, (2Z,4E)-5-(1-hydroxy-3-isobutyl-2,6,6-trimethyl-4-oxocyclohex-2-en-1-yl)-3-methylpenta-2,4-dienoic acid] |  |  | −−
